Literature values as cited in US11071781B2, “Combination of local and systemic immunomodulative therapies for enhanced treatment of cancer” (Provectus Pharmatech, Inc., priority 2011, dated 2021).
Values joined by “and” are separate entries in the source; they are usually repeats but may differ in a detail not shown here. Equal values may be shown once. Read-outs that look alike come from different tables or passages of the source.

How the values were obtained:
melanoma = conditions: for toxicity and side effects: patients
cancer cells = conditions: previous work, WO 02/05812
[1] = intralesional therapy, melanoma patients

Q: With `N.N.[Cl][Pt][Cl]` [cisplatin, reference compound] as the molecule, how does the “objective response rate (ORR)” value (melanoma; [1]) read?
A: The value was 38% and 53%.

Q: What about the ORR (melanoma; lesions having a median diameter of 3.0 cm) of the same molecule?
A: Its ORR is 44%.

Q: What about the ORR (melanoma; lesions with a median diameter of 0.6 cm) of the same molecule?
A: The ORR was 53%.

Q: Which “complete response (CR)” value (melanoma; [1]) does the source give for IFN-α here?
A: Its value is 31%.

Q: And the “objective response rate (ORR)” value (melanoma; [1])?
A: Its value is 45%.

Q: What about the “partial response (PR)” value (melanoma; [1]) of the same molecule?
A: Its value is 14%.

Q: And the “toxicity and side effects” value (melanoma; intralesional therapy)?
A: The value was “significant toxicity and side effects”.

Q: With `O=C1OC2(c3cc(I)c(O)c(I)c3Oc3c2cc(I)c(O)c3I)c2c(Cl)c(Cl)c(Cl)c(Cl)c21` [rose bengal, 4,5,6,7-tetrachloro-2′,4′,5′,7′-tetraiodofluorescein] as the molecule, how does the “uptake into cancer cells versus normal cells” value (cancer cells) read?
A: Its value is “preferential uptake into cancer cells but is essentially excluded from normal cells”.

Q: Which “efficacy (in words)” value (melanoma; single electrochemotherapy treatment, intralesional) does the source give for bleomycin [reference compound] here?
A: Its value is “Substantial efficacy”.

B1: IFN-γ: interferon-gamma, non-specific cytokine (protein, UniProt P01579 24-161, looked up)
Interferon gamma: QDPYVKEAENLKKYFNAGHSDVADNGTLFLGILKNWKEESDRKIMQSQIVSFYFKLFKNFKDDQSIQKSVETIKEDMNVKFFNSNKKKRDDFEKLTNYSVTDLNVQRKAIHELIQVMAELSPAAKTGKRKRSQMLFRG
Q: For B1, which “response to IL therapy (in words)” value (melanoma; intralesional interferon) is on record?
A: Its value is “either no result or transient response”.

Q: What about the “toxicity and side effects” value (melanoma; intralesional therapy) of the same molecule?
A: The value was “significant toxicity and side effects”.
